In ChEMBL document CHEMBL1201862, “PubChem BioAssay data set” (2004):
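Protocol summary: plate cells (96-well), add compound at 5 concentrations, incubate 48 h, interpolate endpoints linearly. GI50 is the concentration that inhibits growth by half.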 Calls of active or inactive are those of the source. Rule as the data show it: active = GI50 up to about 1.1 µM and inactive = higher.

How the values were obtained:
Assay in all cases: NCI anticancer screen, dose series, 48 h
SF-539 = system: SF-539
MOLT-4 = system: MOLT-4
MDA-N = system: MDA-N
ACHN = system: ACHN
DU-145 = system: DU-145
SF-295 = system: SF-295
OVCAR-8 = system: OVCAR-8
HCT-116 = system: HCT-116
SNB-19 = system: SNB-19
NCI-H23 = system: NCI-H23
KM12 = system: KM12
K562 = system: K562
SK-OV-3 = system: SK-OV-3
IGROV-1 = system: IGROV-1
HCT-15 = system: HCT-15
PC-3 = system: PC-3
RPMI-8226 = system: RPMI-8226
SF-268 = system: SF-268
HOP-92 = system: HOP-92
T47D = system: T47D

Row | Structure (SMILES) | GI50 (SF-539) | GI50 (MOLT-4) | GI50 (MDA-N) | GI50 (ACHN) | GI50 (DU-145) | GI50 (SF-295) | GI50 (OVCAR-8) | GI50 (HCT-116) | GI50 (SNB-19) | GI50 (NCI-H23) | GI50 (KM12) | GI50 (K562) | GI50 (SK-OV-3) | GI50 (IGROV-1) | GI50 (HCT-15) | GI50 (PC-3) | GI50 (RPMI-8226) | GI50 (SF-268) | GI50 (HOP-92) | GI50 (T47D)
1 | O=C1/C(=C/c2ccccc2)CCCc2ccccc21 | 17.9 µM (inactive) | 18.5 µM (inactive) | 19 µM (inactive) | 20.8 µM (inactive) | 23.2 µM (inactive) | 19 µM (inactive) | 20.4 µM (inactive) | 16.8 µM (inactive) | 14 µM (inactive) | 17.5 µM (inactive) | 18.1 µM (inactive) | 19.2 µM (inactive) | 38.2 µM (inactive) | 19.6 µM (inactive) | 16.2 µM | 18.1 µM (inactive) | 16.6 µM (inactive) | 17.7 µM (inactive) | 15.3 µM (inactive) | –
2 | COc1ccc(-c2cc(-c3ccc(Nc4ccnc5cc(C(F)(F)F)ccc45)cc3)nc(N)c2C#N)cc1 | 34.6 µM (inactive) | 95.5 µM (inactive) | – | > 100 µM (inactive) | > 100 µM (inactive) | 32 µM (inactive) | – | 23.2 µM (inactive) | 42.7 µM (inactive) | > 100 µM (inactive) | 86.9 µM (inactive) | > 100 µM (inactive) | > 100 µM (inactive) | – | 60.5 µM | 45.1 µM (inactive) | > 100 µM (inactive) | – | 26.1 µM (inactive) | 46.1 µM (inactive)
3 | CC[N+](CC)(CCNCC(N)=O)CC(N)=O | > 10 µM (inactive) | > 10 µM (inactive) | > 10 µM (inactive) | > 10 µM (inactive) | > 10 µM (inactive) | > 10 µM (inactive) | > 10 µM (inactive) | > 10 µM (inactive) | > 10 µM (inactive) | > 10 µM (inactive) | > 10 µM (inactive) | > 10 µM (inactive) | > 10 µM (inactive) | > 10 µM (inactive) | > 10 µM | > 10 µM (inactive) | > 10 µM (inactive) | > 10 µM (inactive) | > 10 µM (inactive) | –
4 | COc1cc(/C=C\c2ccc(C)cc2)cc(OC)c1OC | 0.00296 µM (active) | 0.00697 µM (active) | 0.00221 µM (active) | 0.0637 µM (active) | 0.0234 µM (active) | 0.00188 µM (active) | 0.00822 µM (active) | 0.00106 µM (active) | 0.004 µM (active) | 0.0363 µM (active) | 0.00531 µM (active) | 0.00131 µM (active) | 0.0017 µM (active) | 0.0466 µM (active) | 0.00746 µM | 0.0123 µM (active) | 0.00371 µM (active) | 0.00505 µM (active) | 0.0652 µM (active) | –
5 | COC(=O)CC(CNC(=O)OCc1ccccc1)OCc1ccc(OC)cc1 (configuration not stated) | > 100 µM (inactive) | > 100 µM (inactive) | > 100 µM (inactive) | > 100 µM (inactive) | > 100 µM (inactive) | > 100 µM (inactive) | > 100 µM (inactive) | > 100 µM (inactive) | > 100 µM (inactive) | 67.5 µM (inactive) | > 100 µM (inactive) | > 100 µM (inactive) | > 100 µM (inactive) | > 100 µM (inactive) | > 100 µM | 99.5 µM (inactive) | > 100 µM (inactive) | – | > 100 µM (inactive) | –
6 | C(/C=N/N=C1NCCCN1)=N\N=C1NCCCN1 | > 100 µM (inactive) | > 100 µM (inactive) | > 100 µM (inactive) | > 100 µM (inactive) | – | > 10 µM (inactive) | > 100 µM (inactive) | > 100 µM (inactive) | > 100 µM (inactive) | > 100 µM (inactive) | > 100 µM (inactive) | > 100 µM (inactive) | > 100 µM (inactive) | > 100 µM (inactive) | – | > 100 µM (inactive) | – | > 100 µM (inactive) | 56.5 µM (inactive) | > 100 µM (inactive)
7 | COc1ccccc1N1C(=O)/C(=C\c2ccccc2)SC1c1cc(OC)c(OC)c(OC)c1 (configuration not stated) | – | 35 µM (inactive) | 17.9 µM (inactive) | 74.1 µM (inactive) | – | 30.1 µM (inactive) | 42 µM (inactive) | 31.8 µM (inactive) | 66.8 µM (inactive) | 43.9 µM (inactive) | 32.1 µM (inactive) | 41.7 µM (inactive) | 42.3 µM (inactive) | – | 32.3 µM | 21.4 µM (inactive) | – | 48.5 µM (inactive) | 34.5 µM (inactive) | 5.97 µM (inactive)
8 | CSC1=N/C(=C\c2ccc(Cl)cc2)C(=O)N1CN1CCOCC1 | – | 40 µM (inactive) | 47.8 µM (inactive) | 31.3 µM (inactive) | 63.8 µM (inactive) | > 100 µM (inactive) | 21.7 µM (inactive) | 27.5 µM (inactive) | 31.8 µM (inactive) | 66.8 µM (inactive) | 85.7 µM (inactive) | 33 µM (inactive) | 30.6 µM (inactive) | 27.4 µM (inactive) | 21.6 µM | 38.9 µM (inactive) | 19.3 µM (inactive) | 18.2 µM (inactive) | 0.308 µM (active) | –
